{"source": "paper PMC11502334", "about": "“Fungal glyceraldehyde 3-phosphate dehydrogenase GpdC maintains glycolytic mechanism against reactive nitrogen stress-induced damage” (Frontiers in Microbiology, 2024)", "key": {"rGpdA (GpdA)": {"molecular_target": "T1, rGpdA (GpdA) (Aspergillus nidulans, UniProt P20445)", "T1 construct": "recombinant from cDNA, vector pET-21a, expressed in E. coli BL21 (DE3), HisTrap purified", "T1 sequence (P20445 whole entry)": "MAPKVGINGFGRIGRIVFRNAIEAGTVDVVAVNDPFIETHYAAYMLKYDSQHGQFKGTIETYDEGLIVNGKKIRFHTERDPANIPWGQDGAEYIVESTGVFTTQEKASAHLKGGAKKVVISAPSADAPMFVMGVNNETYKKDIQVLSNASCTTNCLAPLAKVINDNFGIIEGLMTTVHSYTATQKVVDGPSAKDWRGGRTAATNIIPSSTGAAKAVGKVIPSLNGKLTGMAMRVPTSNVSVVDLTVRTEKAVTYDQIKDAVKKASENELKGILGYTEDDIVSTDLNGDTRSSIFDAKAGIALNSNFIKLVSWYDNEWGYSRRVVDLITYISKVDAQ", "test": "residual GAPDH activity after preincubation; biotin-switch assay", "type": "biochemical", "details": "covalent (S-nitrosation of thiols); 0–1 mM, 1 h, 25°C, pH 7.5; activity measured with NAD+"}, "rGpdC (GpdC)": {"molecular_target": "T2, rGpdC (GpdC) (Aspergillus nidulans, UniProt Q5BA47)", "T2 construct": "gene ANIA_02583; recombinant from synthetic E. coli codon-optimized gene, vector pET-21a (Nde I/Hind III), expressed in E. coli BL21 (DE3), HisTrap purified", "T2 sequence (Q5BA47 1-354)": "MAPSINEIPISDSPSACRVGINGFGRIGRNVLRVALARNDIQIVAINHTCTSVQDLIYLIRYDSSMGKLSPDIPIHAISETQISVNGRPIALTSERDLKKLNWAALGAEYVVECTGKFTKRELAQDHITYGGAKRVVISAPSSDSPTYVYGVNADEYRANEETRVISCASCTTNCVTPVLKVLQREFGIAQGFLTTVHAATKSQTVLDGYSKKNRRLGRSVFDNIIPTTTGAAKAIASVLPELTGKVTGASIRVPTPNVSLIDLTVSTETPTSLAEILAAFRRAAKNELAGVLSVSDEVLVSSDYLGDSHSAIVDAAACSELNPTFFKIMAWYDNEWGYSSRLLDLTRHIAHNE", "test": "residual GAPDH activity after preincubation; biotin-switch assay", "type": "biochemical", "details": "covalent (S-nitrosation of thiols); 0–1 mM, 1 h, 25°C, pH 7.5; activity measured with NADP+"}}}
{"smiles": "N[C@@H](CCC(=O)N[C@@H](CSN=O)C(=O)NCC(=O)O)C(=O)O", "note": "[GSNO]", "values": [{"measurement": "residual GAPDH activity after preincubation; biotin-switch assay", "setting": "rGpdA (GpdA)", "result": "GSNO modified the thiol residues of rGpdA and rGpdC to S-nitrosothiol and impaired enzyme activity"}, {"measurement": "residual GAPDH activity after preincubation; biotin-switch assay", "setting": "rGpdC (GpdC)", "result": "GSNO modified the thiol residues of rGpdA and rGpdC to S-nitrosothiol and impaired enzyme activity"}]}
